Experiments:
[1] = system: smad2; test: AAV6-GFP-U6-mSMAD2_shRNA treatment of Min6 cells, Western blot and RT-PCR; assay type: cell-based
Experimental: (§1) FIGS. 19A-19C. AAV6-GFP-U6-mSMAD2_shRNA treatment in vitro blocks smad2 expression in MIN6 and Beta-TC cell lines. […] Phospho smad2 expression is nearly absent in Min6 cells after AAV6-GFP-U6-mSMAD2_shRNA treatment (B). […] Similar experiments can be performed in human beta cell lines (EndoC-bH5, Human Cell Design) and primary human beta cells.
(§2) FIGS. 19A-19C show results from experiments where Min6 cells or beta-TC cells were treated with AAV6-GFP-U6-mSMAD2_shRNA for three days. A lysate was prepared from total or sorted cells. RT-PCR, and Western blot for Smad2, phospho Smad2 and Beta-actin was performed. […] Phospho smad2 expression is nearly absent in Min6 cells after AAV6-GFP-U6-mSMAD2_shRNA treatment (FIG. 19B).

[2] = system: smad2; test: AAV6-GFP-U6-mSMAD2_shRNA treatment of beta-TC cells, Western blot; assay type: cell-based; conditions: beta-TC cells sorted after transfection, treated for three days, Western blot (FIG. 19A)
Experimental: as §1, §2

AAV6-GFP-U6-mSMAD2_shRNA: AAV6 construct with smad2 shRNA sequence SEQ ID NO: 34, targeting sequence SEQ ID NO: 35 (DNA CCGGTGGTGTTCAATCGCATACTATCTCGAGATAGTATGCGATTGAACACCATTTTTG)
smad2 expression ([1]; Min6 cells sorted after transfection, treated for three days, Western blot (FIG. 19A)): near complete ablation
Phospho smad2 expression ([1]; Min6 cells, treated for three days, Western blot (FIG. 19B)): nearly absent
RT-PCR quantification of MIN6 mRNA (smad2) ([1]; sorted MIN6 cells, treated for three days (FIG. 19C)): complete absence
smad2 expression [2]: near complete ablation
